Measurements as given in patent US9833497B2, “Human originated EGF domain proteins and use of the same” (CHENGDU SOURCEBIO LIMITED-LIABILITY COMPANY, priority 2013, dated 2017).

Legend:
Type in all cases: cell-based
E. coli DH5α = test: Antibacterial activity: MIC and growth curve against E. coli DH5α in 96-well plate; details: minimal inhibitory concentration against E. coli DH5α; 96-well plate, 5×10^5 CFU/mL, 37° C., judged after 8 h
How it was run: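 Log-phase DH5α (OD600 about 0.5, 37° C, 185 rpm in LB) was pelleted, resuspended in fresh LB and seeded at 5×10^5 CFU/mL with recombinant protein at 50, 25 and 12.5 μg/mL (two-fold series), in triplicate. Plates were shaken at 175 rpm, 37° C, and OD600 was read every 30 min. MIC was the lowest concentration with no growth.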

E. coli BL21 = test: MIC against Gram-negative bacteria: E. coli BL21
How it was run: (§1)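 MIC, the lowest recombinant protein concentration giving no bacterial growth, found by two-fold serial dilution of human EGF-domain proteins in triplicate. Inoculum 5×10^5 CFU/mL in LB from cultures at McFarland 0.5; plates incubated at 37° C, 175 rpm shaking.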

Pseudomonas aeruginosa = test: MIC against Gram-negative bacteria: Pseudomonas aeruginosa
How it was run: as §1

Klebsiella pneumonia = test: MIC against Gram-negative bacteria: Klebsiella pneumonia
How it was run: as §1

Enterobacter cloacae = test: MIC against Gram-negative bacteria: Enterobacter cloacae
How it was run: as §1

Aeromonas hydrophila = test: MIC against Gram-negative bacteria: Aeromonas hydrophila
How it was run: as §1

Citrobacter diversus = test: MIC against Gram-negative bacteria: Citrobacter diversus
How it was run: as §1

Moraxella catarrhalis = test: MIC against Gram-negative bacteria: Moraxella catarrhalis
How it was run: as §1

Proteus mirabilis = test: MIC against Gram-negative bacteria: Proteus mirabilis
How it was run: as §1

Proteus vulgaris = test: MIC against Gram-negative bacteria: Proteus vulgaris
How it was run: as §1

Serratia marcescens = test: MIC against Gram-negative bacteria: Serratia marcescens
How it was run: as §1

[1] = E. coli BL21, 10 h cultivation at 37° C.
[2] = P. aeruginosa, 10 h cultivation at 37° C.
[3] = K. pneumonia, 10 h cultivation at 37° C.
[4] = E. cloacae, 10 h cultivation at 37° C.
[5] = A. hydrophila, 10 h cultivation at 37° C.
[6] = C. diversus, 10 h cultivation at 37° C.
[7] = M. catarrhalis, 10 h cultivation at 37° C.
[8] = P. mirabilis, 10 h cultivation at 37° C.
[9] = P. vulgaris, 10 h cultivation at 37° C.
[10] = S. marcescens, 10 h cultivation at 37° C.
[11] = 96-well plate, 5×10^5 CFU/mL, 37° C., 10 h
[12] = 10 h cultivation at 37° C., 5×10^5 CFU/mL, two-fold serial dilution

PRT1041 (VPLCAQECVHGRCVAPNQCQCVPGWRGDDCS; listed as Homo sapiens)
MIC (E. coli DH5α): 12.5 µg/mL | MIC (E. coli BL21; [1]): 25 µg/mL | MIC (Pseudomonas aeruginosa; [2]): 50 µg/mL | MIC (Klebsiella pneumonia; [3]): 25 µg/mL | MIC (Enterobacter cloacae; [4]): 50 µg/mL | MIC (Aeromonas hydrophila; [5]): 50 µg/mL | MIC (Citrobacter diversus; [6]): 12.5 µg/mL | MIC (Moraxella catarrhalis; [7]): 50 µg/mL | MIC (Proteus mirabilis; [8]): 25 µg/mL | MIC (Proteus vulgaris; [9]): 50 µg/mL | MIC (Serratia marcescens; [10]): 25 µg/mL

PRT954 (NIDDCPNHRCQNGGVCVDGVNTYNCRCPPQWTGQFCT; listed as Homo sapiens)
MIC (E. coli DH5α): 50 µg/mL | MIC (E. coli BL21; [1]): 25 µg/mL | MIC (Pseudomonas aeruginosa; [2]): 12.5 µg/mL | MIC (Klebsiella pneumonia; [3]): 25 µg/mL | MIC (Enterobacter cloacae; [4]): 50 µg/mL | MIC (Aeromonas hydrophila; [5]): 12.5 µg/mL | MIC (Citrobacter diversus; [6]): 25 µg/mL | MIC (Moraxella catarrhalis; [7]): 50 µg/mL | MIC (Proteus mirabilis; [8]): 25 µg/mL | MIC (Proteus vulgaris; [9]): 12.5 µg/mL | MIC (Serratia marcescens; [10]): 25 µg/mL

PRT594 (CACNNNIDVTDPESCSRVTGECLRCLHNTQGANCQLCKPGHYGSALNQTCRR; listed as Homo sapiens)
MIC (E. coli DH5α): 12.5 µg/mL | MIC E. coli BL21 (E. coli BL21; [11]): 25 µg/mL | MIC P. aeruginosa (Pseudomonas aeruginosa; [11]): 50 µg/mL | MIC K. pneumonia (Klebsiella pneumonia; [11]): 12.5 µg/mL | MIC E. cloacae (Enterobacter cloacae; [11]): 50 µg/mL | MIC A. hydrophila (Aeromonas hydrophila; [11]): 12.5 µg/mL | MIC C. diversus (Citrobacter diversus; [11]): 50 µg/mL | MIC M. catarrhalis (Moraxella catarrhalis; [11]): 12.5 µg/mL | MIC P. mirabilis (Proteus mirabilis; [11]): 50 µg/mL | MIC P. vulgaris (Proteus vulgaris; [11]): 12.5 µg/mL | MIC S. marcescens (Serratia marcescens; [11]): 50 µg/mL

PRT469 (NCSTTCFNGGTCFYPGKCICPPGLEGEQCE; listed as Homo sapiens)
MIC (E. coli DH5α): 12.5 µg/mL | MIC against E. coli BL21 (E. coli BL21; [11]): 25 µg/mL | MIC against P. aeruginosa (Pseudomonas aeruginosa; [11]): 12.5 µg/mL | MIC against K. pneumonia (Klebsiella pneumonia; [11]): 25 µg/mL | MIC against E. cloacae (Enterobacter cloacae; [11]): 50 µg/mL | MIC against A. hydrophila (Aeromonas hydrophila; [11]): 25 µg/mL | MIC against C. diversus (Citrobacter diversus; [11]): 12.5 µg/mL | MIC against M. catarrhalis (Moraxella catarrhalis; [11]): 50 µg/mL | MIC against P. mirabilis (Proteus mirabilis; [11]): 12.5 µg/mL | MIC against P. vulgaris (Proteus vulgaris; [11]): 50 µg/mL | MIC against S. marcescens (Serratia marcescens; [11]): 12.5 µg/mL

PRT1455 (DWDECVDSAEHDCSPAAWCINLEGSYTCQCRTTRDATPSRAGRACE; listed as Homo sapiens)
MIC (E. coli DH5α): 25 µg/mL | MIC against E. coli BL21 (E. coli BL21; E. coli BL21, 5×10^5 CFU/mL, 10 h cultivation at 37° C.): 12.5 µg/mL | MIC against P. aeruginosa (Pseudomonas aeruginosa; Pseudomonas aeruginosa, 5×10^5 CFU/mL, 10 h cultivation at 37° C.): 25 µg/mL | MIC against K. pneumonia (Klebsiella pneumonia; Klebsiella pneumonia, 5×10^5 CFU/mL, 10 h cultivation at 37° C.): 25 µg/mL | MIC against E. cloacae (Enterobacter cloacae; Enterobacter cloacae, 5×10^5 CFU/mL, 10 h cultivation at 37° C.): 12.5 µg/mL | MIC against A. hydrophila (Aeromonas hydrophila; Aeromonas hydrophila, 5×10^5 CFU/mL, 10 h cultivation at 37° C.): 25 µg/mL | MIC against C. diversus (Citrobacter diversus; Citrobacter diversus, 5×10^5 CFU/mL, 10 h cultivation at 37° C.): 12.5 µg/mL | MIC against M. catarrhalis (Moraxella catarrhalis; Moraxella catarrhalis, 5×10^5 CFU/mL, 10 h cultivation at 37° C.): 12.5 µg/mL | MIC against P. mirabilis (Proteus mirabilis; Proteus mirabilis, 5×10^5 CFU/mL, 10 h cultivation at 37° C.): 12.5 µg/mL | MIC against P. vulgaris (Proteus vulgaris; Proteus vulgaris, 5×10^5 CFU/mL, 10 h cultivation at 37° C.): 12.5 µg/mL | MIC against S. marcescens (Serratia marcescens; Serratia marcescens, 5×10^5 CFU/mL, 10 h cultivation at 37° C.): 25 µg/mL

PRT805 (FGQNCSQDCPCHHGGQCDHVTGQCHCTAGYMGDRCQ; listed as Homo sapiens)
MIC (E. coli DH5α): 12.5 µg/mL | MIC (μg/mL) E. coli BL21 (E. coli BL21; E. coli BL21, 10 h cultivation at 37° C., 5×10^5 CFU/mL): 50 µg/mL | MIC (μg/mL) P. aeruginosa (Pseudomonas aeruginosa; P. aeruginosa, 10 h cultivation at 37° C., 5×10^5 CFU/mL): 12.5 µg/mL | MIC (μg/mL) K. pneumonia (Klebsiella pneumonia; K. pneumonia, 10 h cultivation at 37° C., 5×10^5 CFU/mL): 12.5 µg/mL | MIC (μg/mL) E. cloacae (Enterobacter cloacae; E. cloacae, 10 h cultivation at 37° C., 5×10^5 CFU/mL): 12.5 µg/mL | MIC (μg/mL) A. hydrophila (Aeromonas hydrophila; A. hydrophila, 10 h cultivation at 37° C., 5×10^5 CFU/mL): 12.5 µg/mL | MIC (μg/mL) C. diversus (Citrobacter diversus; C. diversus, 10 h cultivation at 37° C., 5×10^5 CFU/mL): 12.5 µg/mL | MIC (μg/mL) M. catarrhalis (Moraxella catarrhalis; M. catarrhalis, 10 h cultivation at 37° C., 5×10^5 CFU/mL): 50 µg/mL | MIC (μg/mL) P. mirabilis (Proteus mirabilis; P. mirabilis, 10 h cultivation at 37° C., 5×10^5 CFU/mL): 12.5 µg/mL | MIC (μg/mL) P. vulgaris (Proteus vulgaris; P. vulgaris, 10 h cultivation at 37° C., 5×10^5 CFU/mL): 50 µg/mL | MIC (μg/mL) S. marcescens (Serratia marcescens; S. marcescens, 10 h cultivation at 37° C., 5×10^5 CFU/mL): 12.5 µg/mL

PRT541 (CSCDLRGTLGGVAECQPGTGQCFCKPHVCGQACASCKDGFFGLDQADYFGCRS; listed as Homo sapiens)
MIC (E. coli DH5α): 12.5 µg/mL | MIC against E. coli BL21 (E. coli BL21; [11]): 50 µg/mL | MIC against P. aeruginosa (Pseudomonas aeruginosa; [11]): 100 µg/mL | MIC against K. pneumonia (Klebsiella pneumonia; [11]): 50 µg/mL | MIC against E. cloacae (Enterobacter cloacae; [11]): 12.5 µg/mL | MIC against A. hydrophila (Aeromonas hydrophila; [11]): 50 µg/mL | MIC against C. diversus (Citrobacter diversus; [11]): 12.5 µg/mL | MIC against M. catarrhalis (Moraxella catarrhalis; [11]): 50 µg/mL | MIC against P. mirabilis (Proteus mirabilis; [11]): 12.5 µg/mL | MIC against P. vulgaris (Proteus vulgaris; [11]): 25 µg/mL | MIC against S. marcescens (Serratia marcescens; [11]): 50 µg/mL

PRT1137 (ESNECKMNPCKNNSTCTDLYKSYRCECTSGWTGQNCS; listed as Homo sapiens)
MIC (E. coli DH5α): 25 µg/mL | MIC E. coli BL21 (E. coli BL21; [12]): 50 µg/mL | MIC P. aeruginosa (Pseudomonas aeruginosa; [12]): 25 µg/mL | MIC K. pneumonia (Klebsiella pneumonia; [12]): 12.5 µg/mL | MIC E. cloacae (Enterobacter cloacae; [12]): 25 µg/mL | MIC A. hydrophila (Aeromonas hydrophila; [12]): 50 µg/mL | MIC C. diversus (Citrobacter diversus; [12]): 12.5 µg/mL | MIC M. catarrhalis (Moraxella catarrhalis; [12]): 50 µg/mL | MIC P. mirabilis (Proteus mirabilis; [12]): 12.5 µg/mL | MIC P. vulgaris (Proteus vulgaris; [12]): 50 µg/mL | MIC S. marcescens (Serratia marcescens; [12]): 12.5 µg/mL

PRT1174 (DLNYCGTHQPCLNGGTCSNTGPDKYQCSCPEGYSGPNCE; listed as Homo sapiens)
MIC (E. coli DH5α): 12.5 µg/mL | MIC E. coli BL21 (E. coli BL21; [12]): 50 µg/mL | MIC P. aeruginosa (Pseudomonas aeruginosa; [12]): 12.5 µg/mL | MIC K. pneumonia (Klebsiella pneumonia; [12]): 50 µg/mL | MIC E. cloacae (Enterobacter cloacae; [12]): 12.5 µg/mL | MIC A. hydrophila (Aeromonas hydrophila; [12]): 50 µg/mL | MIC C. diversus (Citrobacter diversus; [12]): 12.5 µg/mL | MIC M. catarrhalis (Moraxella catarrhalis; [12]): 50 µg/mL | MIC P. mirabilis (Proteus mirabilis; [12]): 12.5 µg/mL | MIC P. vulgaris (Proteus vulgaris; [12]): 25 µg/mL | MIC S. marcescens (Serratia marcescens; [12]): 50 µg/mL

PRT1323 (DCIECPGGAGSPCNGRGSCAEGMEGNGTCSCQEGFGGTACE; listed as Homo sapiens)
MIC (E. coli DH5α): 12.5 µg/mL | MIC against E. coli BL21 (E. coli BL21; E. coli BL21, 96-well plate, 5×10^5 CFU/mL, 37° C., 10 h): 25 µg/mL | MIC against P. aeruginosa (Pseudomonas aeruginosa; Pseudomonas aeruginosa, 96-well plate, 5×10^5 CFU/mL, 37° C., 10 h): 12.5 µg/mL | MIC against K. pneumonia (Klebsiella pneumonia; Klebsiella pneumonia, 96-well plate, 5×10^5 CFU/mL, 37° C., 10 h): 25 µg/mL | MIC against E. cloacae (Enterobacter cloacae; Enterobacter cloacae, 96-well plate, 5×10^5 CFU/mL, 37° C., 10 h): 12.5 µg/mL | MIC against A. hydrophila (Aeromonas hydrophila; Aeromonas hydrophila, 96-well plate, 5×10^5 CFU/mL, 37° C., 10 h): 12.5 µg/mL | MIC against C. diversus (Citrobacter diversus; Citrobacter diversus, 96-well plate, 5×10^5 CFU/mL, 37° C., 10 h): 50 µg/mL | MIC against M. catarrhalis (Moraxella catarrhalis; Moraxella catarrhalis, 96-well plate, 5×10^5 CFU/mL, 37° C., 10 h): 12.5 µg/mL | MIC against P. mirabilis (Proteus mirabilis; Proteus mirabilis, 96-well plate, 5×10^5 CFU/mL, 37° C., 10 h): 25 µg/mL | MIC against P. vulgaris (Proteus vulgaris; Proteus vulgaris, 96-well plate, 5×10^5 CFU/mL, 37° C., 10 h): 50 µg/mL | MIC against S. marcescens (Serratia marcescens; Serratia marcescens, 96-well plate, 5×10^5 CFU/mL, 37° C., 10 h): 12.5 µg/mL
